From US9422312B2, “Azabenzimidazole derivatives” (Boehringer Ingelheim International GmbH, priority 2014, dated 2016)

Target: Activated AMPK complex 1 (containing alpha1beta1gamma1) (Homo sapiens (Human), UniProt Q13131+Q9Y478)
Assay: in vitro AMPK activation assay (ADP-Glo Kinase Assay)
Type: biochemical
Conditions: 1 μM peptide substrate, 30 μM ATP, 60 min, room temperature, luminescence
Source text: Activated AMPK complex 1 (containing alpha1beta1gamma1) was obtained from baculovirus expression system. The gene encoding AMPK alpha1 was cloned into the pACG2T vector (BD Biosciences) to obtain a N-terminal Glutathion S transferase (GST)-fusion protein. The genes encoding AMPK beta 1 and gamma1 were cloned into the p2Bac dual multiple cloning site vector (Invitrogen) with beta1 under the control of the p10 promoter and gamma1 under the control of the PH promoter. The transfer vectors containing AMPK were co-transfected individually with AcPNV BacMagic-3 DNA (EMD Millipore) in Sf9 cells and the recombinant baculoviruses were harvested after 5 days, followed by 3 rounds of amplification of the virus stock in Sf9 cells. AMPK (alpha1beta1gamma1) was expressed in High Five 5 cells by co-infection of recombinant alpha1 virus and recombinant beta1/gamma1 virus for 72 h at 27° C. Cells were harvested by centrifugation and lysed by 3 freeze/thaw cycles in PBS with 10% glycerol and protease inhibitor cocktail (Roche). After centrifugation AMPK a1b1g1 in the supernatant was captured by immobilized glutathione (GE Healthcare), impurities were washed away with PBS and AMPK alpha1beta1gamma1 was eluted with PBS containing 20 mM reduced gluthathione. The protein buffer was then exchanged to PBS with 10% glycerol and protein concentration was determined by UV absorbance.
The white 384-well Optiplates (cat. no. 6007299) were purchased from PerkinElmer. The V9101 ADP-Glo Kinase Assay and ultra pure ATP (V915A) was purchased from Promega. The substrate for AMPK (NH2-HMRSAMSGLHLVKRR_CONH2) was purchased from Upstate (12-355).
Compounds were tested in either serial dilutions or single dose concentrations. The serial compound dilutions were prepared in 100% DMSO automatically. The final DMSO concentration in the assay was 0.1%.
The Compound Stock Solutions were 10 mM in 100% DMSO. The compounds were solubilised at room temperature.
In the 384-well plates 1.25 ul of test compound in assay buffer was mixed with 1.25 ul of AMPK and 1.25 μl of the peptide (final concentration of 1 μM) and 1.25 μl of ATP (final concentration of 30 μM), both dissolved in assay buffer. This step was followed by an incubation time of 60 min. Then 5 μl of ADP Glo Reagent was added. This was followed by 40 min of incubation. Then 10 μl of Kinase Detection Reagent was admixed. The plates were sealed and after an incubation period of 30 min, the luminescence signal was measured in an Envision reader. All incubation steps were accomplished at room temperature.
Each assay microtiter plate contained wells with vehicle controls instead of compound (0.1% DMSO in water) as reference for the low signal (100% CTL, low signal), and wells with serial dilutions of AMP (final 30 μM) as reference for high signals.
The luminescence signal generated was proportional to the ADP concentration produced and was correlated with AMPK activity. The analysis of the data was performed by the calculation of the percentage of ATP consumption of AMPK in the presence of the test compound compared to the consumption of ATP in the presence of AMPK without compound. (RLU(sample)/RLU(low control))*100[RLU=relative luminescence units]
An activator of the AMPK enzyme gave values above 100% CTL.
EC50 values based on dose response curves are calculated with the XIFIT software using the 4 Parameter Logistic Model or Sigmoidal Dose-Response Model.

Sequence of Activated AMPK complex 1 (containing alpha1beta1gamma1) (Q13131 whole entry): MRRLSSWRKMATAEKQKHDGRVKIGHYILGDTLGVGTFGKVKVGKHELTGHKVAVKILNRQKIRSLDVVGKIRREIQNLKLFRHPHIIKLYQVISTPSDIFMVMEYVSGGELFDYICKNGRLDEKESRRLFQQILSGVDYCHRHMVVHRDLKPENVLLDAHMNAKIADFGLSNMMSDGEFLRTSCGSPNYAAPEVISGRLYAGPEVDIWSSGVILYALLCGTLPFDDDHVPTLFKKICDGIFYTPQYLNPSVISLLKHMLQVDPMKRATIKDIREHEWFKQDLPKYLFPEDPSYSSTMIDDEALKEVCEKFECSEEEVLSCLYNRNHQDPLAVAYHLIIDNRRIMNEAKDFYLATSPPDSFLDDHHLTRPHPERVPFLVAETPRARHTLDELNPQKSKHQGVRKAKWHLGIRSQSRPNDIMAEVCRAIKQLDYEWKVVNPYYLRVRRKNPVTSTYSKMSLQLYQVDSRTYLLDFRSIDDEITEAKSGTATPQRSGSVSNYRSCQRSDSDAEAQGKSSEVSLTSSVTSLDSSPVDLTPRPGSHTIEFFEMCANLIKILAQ
Sequence of Activated AMPK complex 1 (containing alpha1beta1gamma1) (Q9Y478 whole entry): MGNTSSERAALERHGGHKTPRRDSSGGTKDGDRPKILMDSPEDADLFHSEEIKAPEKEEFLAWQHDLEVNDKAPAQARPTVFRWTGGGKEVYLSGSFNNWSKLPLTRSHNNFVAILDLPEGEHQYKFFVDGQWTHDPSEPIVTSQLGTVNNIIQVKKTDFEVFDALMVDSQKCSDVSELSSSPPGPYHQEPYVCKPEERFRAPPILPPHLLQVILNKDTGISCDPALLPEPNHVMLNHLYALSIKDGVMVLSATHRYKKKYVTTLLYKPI
Sequence of Activated AMPK complex 1 (containing alpha1beta1gamma1) (P54619 whole entry partner): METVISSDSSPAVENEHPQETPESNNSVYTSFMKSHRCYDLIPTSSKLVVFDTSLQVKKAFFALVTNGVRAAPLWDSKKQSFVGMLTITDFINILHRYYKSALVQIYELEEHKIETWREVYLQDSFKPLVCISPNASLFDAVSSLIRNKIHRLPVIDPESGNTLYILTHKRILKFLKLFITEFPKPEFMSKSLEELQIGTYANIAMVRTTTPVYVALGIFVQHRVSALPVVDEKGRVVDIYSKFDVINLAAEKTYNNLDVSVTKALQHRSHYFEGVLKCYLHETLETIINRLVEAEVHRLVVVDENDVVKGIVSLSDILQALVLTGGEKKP

In the case of `CN=S(=O)(NC)c1ccc(-c2ccc(-c3nc4[nH]c(O[C@@H]5CO[C@H]6[C@@H]5OC[C@H]6O)nc4cc3Cl)cc2)cc1` (stereo partly drawn) [Example 18, 4-[4-(2-{[(3R,3aR,6R,6aR)-6-hydroxy-hexahydrofuro[3,2-b]furan-3-yl]oxy}-6-chloro-3H-imidazo[4,5-b]pyridin-5-yl)phenyl]-N,N′-dimethyl-benzenesulfonimidamide], the EC50 is reported as 67 nM.
`CS(=O)(=NCc1ccc(-c2ccc(-c3nc4[nH]c(O[C@@H]5CO[C@H]6[C@@H]5OC[C@H]6O)nc4cc3Cl)cc2)cc1)N1CCCC1` (stereo partly shown) [Example 19] showed an EC50 of 138 nM.
`CN(C)S(C)(=O)=NCc1ccc(-c2ccc(-c3nc4[nH]c(O[C@@H]5CO[C@H]6[C@@H]5OC[C@H]6O)nc4cc3Cl)cc2)cc1` (stereo partly drawn) [Example 20, N′—({4-[4-(2-{[(3R,3aR,6R,6aR)-6-Hydroxy-hexahydrofuro[3,2-b]furan-3-yl]oxy}-6-chloro-3H-imidazo[4,5-b]pyridin-5-yl)phenyl]phenyl}methyl)-N,N-dimethyl-methanesulfonimidamide] showed an EC50 of 82 nM.
`CN(C)S(C)(=O)=Nc1ccc(-c2nc3[nH]c(O[C@@H]4CO[C@H]5[C@@H]4OC[C@H]5O)nc3cc2Cl)cc1` (stereo partly drawn) [Example 21, N′-[4-(2-{[(3R,3aR,6R,6aR)-6-Hydroxy-hexahydrofuro[3,2-b]furan-3-yl]oxy}-6-chloro-3H-imidazo[4,5-b]pyridin-5-yl)phenyl]-N,N-dimethyl-methanesulfonimidamide] gave an EC50 of 2900 nM.
